In patent US9096560B2, “5-heterocyclylalkyl-3-hydroxy-2-phenylcyclopent-2-enones as herbicides” (Syngenta Limited, priority 2008, dated 2015):

Columns and labels:
Format in all cases: in vivo
Lolium perenne (LOLPE) [1] = assay: Example A pre-emergence herbicidal test, LOLPE; conditions: rate 500 g/ha, evaluated 19 or 20 days after spraying
Description: (§1) Seeds of a variety of test species were sown in standard soil in pots. After cultivation for one day (pre-emergence) or after 10 days cultivation (post-emergence) under controlled conditions in a glasshouse, the plants were sprayed with an aqueous spray solution derived from the formulation of the technical active ingredient in 0.6 ml acetone and 45 ml formulation solution containing 10.6% Emulsogen EL (Registry number 61791-12-6), 42.2% N-methylpyrrolidone, 42.2% dipropylene glycol monomethyl ether (Registry number 34590-94-8) and 0.2% X-77 (Registry number 11097-66-8). The test plants were then grown in a greenhouse under optimum conditions until, 14 or 15 days later for post-emergence and 19 or 20 days for pre-emergence, the test was evaluated (100=total damage to plant; 0=no damage to plant). Alopecurus myosuroides (ALOMY), Avena fatua (AVEFA), Lolium perenne (LOLPE), Setaria faberi (SETFA), Digitaria sanguinalis (DIGSA), Echinochloa crus-galli (ECHCG) Pre-Emergence Activity

Avena fatua (AVEFA) [2] = assay: Example A pre-emergence herbicidal test, AVEFA; conditions: rate 500 g/ha, evaluated 19 or 20 days after spraying
Description: as §1

[3] = tested on: Alopecurus myosuroides (ALOMY); assay: Example A post-emergence herbicidal test, ALOMY; conditions: evaluated 14 or 15 days after spraying
Description: as §1, with “Post-Emergence” for “Pre-Emergence”

[4] = tested on: Alopecurus myosuroides (ALOMY); assay: Example A pre-emergence herbicidal test, ALOMY; conditions: rate 500 g/ha, evaluated 19 or 20 days after spraying
Description: as §1

Avena fatua (AVEFA) [5] = assay: Example A post-emergence herbicidal test, AVEFA; conditions: evaluated 14 or 15 days after spraying
Description: as §1, with “Post-Emergence” for “Pre-Emergence”

[6] = tested on: Digitaria sanguinalis (DIGSA); assay: Example A post-emergence herbicidal test, DIGSA; conditions: evaluated 14 or 15 days after spraying
Description: as §1, with “Post-Emergence” for “Pre-Emergence”

[7] = tested on: Echinochloa crus-galli (ECHCG); assay: Example A pre-emergence herbicidal test, ECHCG; conditions: rate 500 g/ha, evaluated 19 or 20 days after spraying
Description: as §1

Lolium perenne (LOLPE) [8] = assay: Example A post-emergence herbicidal test, LOLPE; conditions: evaluated 14 or 15 days after spraying
Description: as §1, with “Post-Emergence” for “Pre-Emergence”

[9] = tested on: Echinochloa crus-galli (ECHCG); assay: Example A post-emergence herbicidal test, ECHCG; conditions: evaluated 14 or 15 days after spraying
Description: as §1, with “Post-Emergence” for “Pre-Emergence”

Setaria faberi (SETFA) [10] = assay: Example A pre-emergence herbicidal test, SETFA; conditions: rate 500 g/ha, evaluated 19 or 20 days after spraying
Description: as §1

Setaria faberi (SETFA) [11] = assay: Example A post-emergence herbicidal test, SETFA; conditions: evaluated 14 or 15 days after spraying
Description: as §1, with “Post-Emergence” for “Pre-Emergence”

[12] = tested on: Digitaria sanguinalis (DIGSA); assay: Example A pre-emergence herbicidal test, DIGSA; conditions: rate 500 g/ha, evaluated 19 or 20 days after spraying
Description: as §1

Lolium perenne (LOLPE) [13] = assay: Example B pre-emergence herbicidal test, LOLPE; conditions: Lolium perenne, 312 h, rate 250 g/ha, evaluated after 13 days, 100=total damage to plant, 0=no damage to plant
Outline: (§2)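 Pots sown, sprayed day 1 pre-emergence; spray: aqueous dilution of formulation in acetone/water 50:50 + 0.5% Tween 20. Glasshouse 24/16° C, 14 h light, 65% RH, watering twice daily. Visual damage rating at 13 d, 0–100 scale.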

[14] = tested on: Echinochloa crus-galli (ECHCG); assay: Example B post-emergence herbicidal test, ECHCG; conditions: Echinochloa crus-galli, 312 h, rate 250 g/ha, evaluated after 13 days, scale 0-100, read-out: Post-emergence activity ECHCG (100=total damage to plant; 0=no damage to plant)
Outline: (§3)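 Foliar application to 8-day-old pot-grown seedlings in a glasshouse (24/16 °C, 14 h photoperiod, 65% humidity). Spray solution was derived from an acetone/water (50:50) formulation with 0.5% Tween 20. Injury was assessed 13 days later on a 0–100 scale.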

[15] = tested on: Alopecurus myosuroides (ALOMY); assay: Example B post-emergence herbicidal test, ALOMY; conditions: Alopecurus myosuroides, 312 h, rate 250 g/ha, evaluated after 13 days, scale 0-100, read-out: Post-emergence activity ALOMY (100=total damage to plant; 0=no damage to plant)
Outline: as §3

Avena fatua (AVEFA) [16] = assay: Example B pre-emergence herbicidal test, AVEFA; conditions: Avena fatua, 312 h, rate 250 g/ha, evaluated after 13 days, 100=total damage to plant, 0=no damage to plant
Outline: as §2

[17] = tested on: Winter Wheat variety 'Hereward'; assay: Example C crop damage test on Winter Wheat, post-emergence, no safener; conditions: Triticum aestivum, 312 h, rate 250 g/ha, evaluated after 13 days, read-out: Winter Wheat (Hereward) damage (100=total damage to plant; 0=no damage to plant)
Description: Seeds of the Winter Wheat variety ‘Hereward’ were sown in standard soil in pots. After 8 days cultivation under controlled conditions in a glasshouse (at 24/16° C., day/night; 14 hours light; 65% humidity), the plants were sprayed with an aqueous spray solution derived from the formulation of the technical active ingredient in acetone/water (50:50) solution containing 0.5% Tween 20 (polyoxyethelyene sorbitan monolaurate, CAS RN 9005-64-5). The test plants were then grown in a glasshouse under controlled conditions in a glasshouse (at 24/16° C., day/night; 14 hours light; 65% humidity) and watered twice daily. After 13 days for pre and post-emergence, the test was evaluated (100=total damage to plant; 0=no damage to plant).

[18] = tested on: Alopecurus myosuroides (ALOMY); assay: Example B pre-emergence herbicidal test, ALOMY; conditions: Alopecurus myosuroides, 312 h, rate 250 g/ha, evaluated after 13 days, 100=total damage to plant, 0=no damage to plant
Outline: as §2

[19] = tested on: Winter Wheat variety 'Hereward' seed treated with cloquintocet mexyl; assay: Example C crop damage test on Winter Wheat seed treated with safener cloquintocet mexyl, post-emergence; conditions: rate 250 g/ha, seed treated with cloquintocet mexyl 0.5 grams per kilogram of dry seed, evaluated after 13 days
Description: Seeds of the Winter Wheat variety ‘Hereward’ were seed treated with a wettable powder formulation of the cereal herbicide safener, cloquintocet mexyl, at a rate of 0.5 grams per kilogram of dry seed prior to the initiation of glasshouse testing. One seed was sown per 1.5 inch plastic pot into a sandy loam soil at a depth of 1 cm, 8 days prior to application of the test compounds and was watered and grown under controlled conditions in a glasshouse (at 24/16° C., day/night; 14 hours light; 65% humidity). The plants were sprayed Post-emergence with an aqueous spray solution derived from the formulation of the technical active ingredient in acetone/water (50:50) solution containing 0.5% Tween 20 (polyoxyethelyene sorbitan monolaurate, CAS RN 9005-64-5). The test plants were then grown in a glasshouse under controlled conditions in a glasshouse (at 24/16° C., day/night; 14 hours light; 65% humidity) and watered twice daily. After 13 days for pre and post-emergence, the test was evaluated (100=total damage to plant; 0=no damage to plant).

[20] = tested on: Echinochloa crus-galli (ECHCG); assay: Example B pre-emergence herbicidal test, ECHCG; conditions: Echinochloa crus-galli, 312 h, rate 250 g/ha, evaluated after 13 days, 100=total damage to plant, 0=no damage to plant
Outline: as §2

Lolium perenne (LOLPE) [21] = assay: Example B post-emergence herbicidal test, LOLPE; conditions: Lolium perenne, 312 h, rate 250 g/ha, evaluated after 13 days, scale 0-100, read-out: Post-emergence activity LOLPE (100=total damage to plant; 0=no damage to plant)
Outline: as §3

Avena fatua (AVEFA) [22] = assay: Example B post-emergence herbicidal test, AVEFA; conditions: Avena fatua, 312 h, rate 250 g/ha, evaluated after 13 days, scale 0-100, read-out: Post-emergence activity AVEFA (100=total damage to plant; 0=no damage to plant)
Outline: as §3

Compound | pest or weed control at 250 g/ha (Lolium perenne (LOLPE) [13]) [%] | pest or weed control at 250 g/ha [14] [%] | pest or weed control at 250 g/ha [15] [%] | pest or weed control at 250 g/ha (Avena fatua (AVEFA) [16]) [%] | crop damage to winter wheat at 250 g/ha [17] [%] | Post-Emergence Activity ALOMY (100=total damage to plant; 0=no damage to plant) ([3]; rate 250 g/ha) | pest or weed control at 250 g/ha [18] [%] | Winter Wheat (Hereward) + cloquintocet mexyl damage (100=total damage to plant; 0=no damage to plant) [19] | Post-Emergence Activity AVEFA (100=total damage to plant; 0=no damage to plant) (Avena fatua (AVEFA) [5]; rate 250 g/ha) | Post-Emergence Activity DIGSA (100=total damage to plant; 0=no damage to plant) ([6]; rate 250 g/ha) | Post-Emergence Activity LOLPE (100=total damage to plant; 0=no damage to plant) (Lolium perenne (LOLPE) [8]; rate 250 g/ha) | pest or weed control at 250 g/ha [20] [%] | pest or weed control at 250 g/ha (Lolium perenne (LOLPE) [21]) [%] | pest or weed control at 250 g/ha (Avena fatua (AVEFA) [22]) [%] | Post-Emergence Activity ECHCG (100=total damage to plant; 0=no damage to plant) ([9]; rate 250 g/ha) | Post-Emergence Activity SETFA (100=total damage to plant; 0=no damage to plant) (Setaria faberi (SETFA) [11]; rate 250 g/ha) | further results
CCc1ccc(-c2ccc(Cl)cc2)cc1C1C(=O)CC(CC2CCOCC2)C1=O (stereo not shown) [Compound T2] |  |  |  |  |  |  |  |  |  |  |  |  |  |  |  |  | Pre-Emergence Activity LOLPE (100=total damage to plant; 0=no damage to plant) (Lolium perenne (LOLPE) [1]): 90; Pre-Emergence Activity AVEFA (100=total damage to plant; 0=no damage to plant) (Avena fatua (AVEFA) [2]): 10; Post-Emergence Activity ALOMY (100=total damage to plant; 0=no damage to plant) ([3]; rate 125 g/ha): 80; Pre-Emergence Activity ALOMY (100=total damage to plant; 0=no damage to plant) [4]: 70; Post-Emergence Activity AVEFA (100=total damage to plant; 0=no damage to plant) (Avena fatua (AVEFA) [5]; rate 125 g/ha): 40; Post-Emergence Activity DIGSA (100=total damage to plant; 0=no damage to plant) ([6]; rate 125 g/ha): 100; Pre-Emergence Activity ECHCG (100=total damage to plant; 0=no damage to plant) [7]: 70; Post-Emergence Activity LOLPE (100=total damage to plant; 0=no damage to plant) (Lolium perenne (LOLPE) [8]; rate 125 g/ha): 20; Post-Emergence Activity ECHCG (100=total damage to plant; 0=no damage to plant) ([9]; rate 125 g/ha): 100; Pre-Emergence Activity SETFA (100=total damage to plant; 0=no damage to plant) (Setaria faberi (SETFA) [10]): 70; Post-Emergence Activity SETFA (100=total damage to plant; 0=no damage to plant) (Setaria faberi (SETFA) [11]; rate 125 g/ha): 100; Pre-Emergence Activity DIGSA (100=total damage to plant; 0=no damage to plant) [12]: 80
Cc1cc(C)c(C2C(=O)CC(CC3CCOC3)C2=O)c(C)c1 (stereo not shown) [Compound T5] | 100 | 100 | 100 | 80 | 80 | 100 | 100 | 20 | 80 | 50 | 100 | 100 | 100 | 90 | 80 | 30 | 
Cc1cc(C)c(C2C(=O)C/C(=C\C3CCOCC3)C2=O)c(C)c1 (stereo not shown) [Compound T8] | 100 | 100 | 100 | 100 | 90 | 100 | 100 | 80 | 90 | 80 | 100 | 100 | 100 | 100 | 100 | 100 | 
Cc1cc(C)c(C2C(=O)CC(CC3CCOCC3)C2=O)c(C)c1 (stereo not shown) [Compound T4] | 100 | 100 | 100 | 90 | 70 | 100 | 100 | 40 | 90 | 90 | 100 | 100 | 100 | 100 | 100 | 90 | 
Cc1cc(C)c(C2=C(OC(=O)C(C)(C)C)CC(CC3CCOCC3)C2=O)c(C)c1 (stereo not shown) [Compound P5] | 100 | 100 | 100 | 80 | 60 | 100 | 100 | 30 | 100 | 70 | 100 | 100 | 100 | 90 | 100 | 80 | 
